Data taken from PubChem BioAssay AID1259407 (Chemical Carcinogenesis Research Information System (CCRIS), 2018).
Calls of active or inactive are those of the source. The rule behind the calls is not given here.

System: CCRIS mutagenicity, Ames/micronucleus/aberration tests
Assay: CCRIS mutagenicity studies
[1] = Test System: AMES SALMONELLA TYPHIMURIUM, Strain/Indicator: TA100, Metabolic Activation: NONE, Method: PREINCUBATION
[2] = Test System: AMES SALMONELLA TYPHIMURIUM, Strain/Indicator: TA100, Metabolic Activation: NONE, Method: STANDARD PLATE
[3] = Test System: AMES SALMONELLA TYPHIMURIUM, Strain/Indicator: TA1535, Metabolic Activation: NONE, Method: PREINCUBATION
[4] = Test System: AMES SALMONELLA TYPHIMURIUM, Strain/Indicator: TA1535, Metabolic Activation: NONE, Method: STANDARD PLATE
[5] = Test System: AMES SALMONELLA TYPHIMURIUM, Strain/Indicator: TA1537, Metabolic Activation: NONE, Method: STANDARD PLATE
[6] = Test System: AMES SALMONELLA TYPHIMURIUM, Strain/Indicator: TA98, Metabolic Activation: NONE, Method: STANDARD PLATE
[7] = Test System: AMES SALMONELLA TYPHIMURIUM, Strain/Indicator: TA98, Metabolic Activation: RAT, LIVER, S-9, AROCLOR 1254, Method: STANDARD PLATE

CCC(C)[N+](=O)[O-] (stereo not drawn)
mutagenic call [1]: inactive; negative
mutagenic call (Test System: AMES SALMONELLA TYPHIMURIUM, Strain/Indicator: TA100, Metabolic Activation: RAT, LIVER, S-9, AROCLOR, Method: PREINCUBATION): inactive; negative
mutagenic call (Test System: AMES SALMONELLA TYPHIMURIUM, Strain/Indicator: TA102, Metabolic Activation: NONE, Method: PREINCUBATION): inactive; negative
mutagenic call (Test System: AMES SALMONELLA TYPHIMURIUM, Strain/Indicator: TA102, Metabolic Activation: RAT, LIVER, S-9, AROCLOR, Method: PREINCUBATION): inactive; negative
mutagenic call (Test System: E. COLI, Strain/Indicator: WP2 UVRA (PKM101), Metabolic Activation: NONE, Method: PREINCUBATION): active; positive
mutagenic call (Test System: E. COLI, Strain/Indicator: WP2 UVRA (PKM101), Metabolic Activation: RAT, LIVER, S-9, KANECHLOR 1254, Method: PREINCUBATION): active; positive
mutagenic call (Test System: UDS RAT HEPATOCYTES, Strain/Indicator: THY INCORP, Metabolic Activation: NONE): active; positive

c1ccc2c(CC3CO3)cccc2c1 (stereo not drawn)
mutagenic call [1]: active; positive
mutagenic call [2]: active; positive
mutagenic call (Test System: AMES SALMONELLA TYPHIMURIUM, Strain/Indicator: TA104, Metabolic Activation: NONE, Method: STANDARD PLATE): active; positive
mutagenic call [3]: active; positive
mutagenic call [4]: active; positive
mutagenic call (Test System: AMES SALMONELLA TYPHIMURIUM, Strain/Indicator: TA4001, Metabolic Activation: NONE, Method: STANDARD PLATE): active; positive
mutagenic call (Test System: AMES SALMONELLA TYPHIMURIUM, Strain/Indicator: TA4006, Metabolic Activation: NONE, Method: STANDARD PLATE): active; positive

Cc1cc(O)c2c(c1)C(=O)c1c(O)c(O)cc(O)c1C2=O
mutagenic call [5]: inactive; negative
mutagenic call (Test System: AMES SALMONELLA TYPHIMURIUM, Strain/Indicator: TA1537, Metabolic Activation: RAT, LIVER, S-9, PCB, Method: STANDARD PLATE): active; positive

O=Nc1ccccc1-c1ccccc1
mutagenic call [6]: inactive; negative
mutagenic call [2]: active; positive

O=[N+]([O-])c1cccc2c1ccc1ccccc12
mutagenic call (Test System: AMES SALMONELLA TYPHIMURIUM, Strain/Indicator: TA98(1,8-DNP6), Metabolic Activation: NONE, Method: STANDARD PLATE): active; positive
mutagenic call (Test System: AMES SALMONELLA TYPHIMURIUM, Strain/Indicator: TA98(NR), Metabolic Activation: NONE, Method: STANDARD PLATE): active; positive
mutagenic call [6]: active; positive
mutagenic call [2]: active; positive
mutagenic call (Test System: AMES SALMONELLA TYPHIMURIUM, Strain/Indicator: YG1021, Metabolic Activation: NONE, Method: STANDARD PLATE): active; positive
mutagenic call (Test System: AMES SALMONELLA TYPHIMURIUM, Strain/Indicator: YG1024, Metabolic Activation: NONE, Method: STANDARD PLATE): active; positive
mutagenic call (Test System: AMES SALMONELLA TYPHIMURIUM, Strain/Indicator: YG1026, Metabolic Activation: NONE, Method: STANDARD PLATE): active; positive
mutagenic call (Test System: AMES SALMONELLA TYPHIMURIUM, Strain/Indicator: YG1029, Metabolic Activation: NONE, Method: STANDARD PLATE): active; positive

CCCCN(N=O)C(N)=O
mutagenic call [1]: active; positive
mutagenic call (Test System: AMES SALMONELLA TYPHIMURIUM, Strain/Indicator: TA100, Metabolic Activation: RAT, LIVER, S-9, KC500 OR PHENOBARBITAL, Method: LIQUID SUSPENSION): active; positive
mutagenic call [3]: active; positive
mutagenic call [4]: active; positive
mutagenic call (Test System: CHINESE HAMSTER V-79, Strain/Indicator: V-79/6-THIOGUANINE, Metabolic Activation: NONE, Method: FLASK ASSAY): active; positive
mutagenic call (Test System: CHO/HGPRT, Strain/Indicator: CHO-K1-BH4, Metabolic Activation: NONE, Method: STANDARD PLATE): active; positive
mutagenic call (Test System: E. COLI B, Strain/Indicator: H/R30R, Metabolic Activation: NONE): active; positive
mutagenic call (Test System: E. COLI B, Strain/Indicator: HS30R, Metabolic Activation: NONE): active; positive
mutagenic call (Test System: E. COLI, Strain/Indicator: WP2, Metabolic Activation: NONE, Method: STANDARD PLATE): active; positive
mutagenic call (Test System: E. COLI, Strain/Indicator: WP2 UVRA, Metabolic Activation: NONE, Method: PREINCUBATION): active; positive
mutagenic call (Test System: E. COLI, Strain/Indicator: WP2 UVRA, Metabolic Activation: NONE, Method: STANDARD PLATE): active; positive
mutagenic call (Test System: E. COLI, Strain/Indicator: WP2 UVRA, Metabolic Activation: RAT, LIVER, S-9, PHENOBARBITAL AND 5,6-BENZOFLAVONE, Method: PREINCUBATION): active; positive

NC(=O)c1cccc2cccnc12
mutagenic call [6]: inactive; negative
mutagenic call [7]: inactive; negative
mutagenic call [2]: inactive; negative
mutagenic call (Test System: AMES SALMONELLA TYPHIMURIUM, Strain/Indicator: TA100, Metabolic Activation: RAT, LIVER, S-9, AROCLOR 1254, Method: STANDARD PLATE): active; positive
mutagenic call [4]: inactive; negative
mutagenic call (Test System: AMES SALMONELLA TYPHIMURIUM, Strain/Indicator: TA1535, Metabolic Activation: RAT, LIVER, S-9, AROCLOR 1254, Method: STANDARD PLATE): inactive; negative
mutagenic call [5]: inactive; negative
mutagenic call (Test System: AMES SALMONELLA TYPHIMURIUM, Strain/Indicator: TA1537, Metabolic Activation: RAT, LIVER, S-9, AROCLOR 1254, Method: STANDARD PLATE): inactive; negative

O=C(O)C1=NN(c2ccc(S(=O)(=O)O)cc2)C(=O)C1N=Nc1ccc(S(=O)(=O)O)cc1 (stereo not drawn)
mutagenic call [6]: inactive; negative
mutagenic call (Test System: AMES SALMONELLA TYPHIMURIUM, Strain/Indicator: TA98, Metabolic Activation: RAT LIVER S-9, AROCLOR 1254, Method: STANDARD PLATE): inactive; negative
mutagenic call [2]: inactive; negative
mutagenic call (Test System: AMES SALMONELLA TYPHIMURIUM, Strain/Indicator: TA100, Metabolic Activation: RAT LIVER S-9, AROCLOR 1254, Method: STANDARD PLATE): inactive; negative
mutagenic call (Test System: Mouse lymphoma, Strain/Indicator: L5178Y (tk+/tk-), Metabolic Activation: None, Method: Suspension/plate): inactive; negative
mutagenic call (Test System: Mouse lymphoma, Strain/Indicator: L5178Y (tk+/tk-), Metabolic Activation: Rat, Liver, S-9, Aroclor 1254, Method: Suspension/plate): inactive; negative

O=[N+]([O-])c1ccc2ccc3cccc4cc(O)c1c2c34
mutagenic call [6]: active; positive
mutagenic call [7]: active; positive

[Li+]
mutagenic call (Test System: AMES SALMONELLA TYPHIMURIUM, Strain/Indicator: TA98, Metabolic Activation: HAMSTER, LIVER, S-9, AROCLOR 1254, Method: PREINCUBATION): inactive; negative
mutagenic call (Test System: AMES SALMONELLA TYPHIMURIUM, Strain/Indicator: TA98, Metabolic Activation: NONE, Method: PREINCUBATION): inactive; negative
mutagenic call (Test System: AMES SALMONELLA TYPHIMURIUM, Strain/Indicator: TA98, Metabolic Activation: RAT, LIVER, S-9, AROCLOR 1254, Method: PREINCUBATION): inactive; negative
mutagenic call (Test System: AMES SALMONELLA TYPHIMURIUM, Strain/Indicator: TA100, Metabolic Activation: HAMSTER, LIVER, S-9, AROCLOR 1254, Method: PREINCUBATION): inactive; negative
mutagenic call [1]: inactive; negative
mutagenic call (Test System: AMES SALMONELLA TYPHIMURIUM, Strain/Indicator: TA100, Metabolic Activation: RAT, LIVER, S-9, AROCLOR 1254, Method: PREINCUBATION): inactive; negative
mutagenic call (Test System: AMES SALMONELLA TYPHIMURIUM, Strain/Indicator: TA1535, Metabolic Activation: HAMSTER, LIVER, S-9, AROCLOR 1254, Method: PREINCUBATION): inactive; negative
mutagenic call [3]: inactive; negative
mutagenic call (Test System: AMES SALMONELLA TYPHIMURIUM, Strain/Indicator: TA1535, Metabolic Activation: RAT, LIVER, S-9, AROCLOR 1254, Method: PREINCUBATION): inactive; negative
mutagenic call (Test System: AMES SALMONELLA TYPHIMURIUM, Strain/Indicator: TA1537, Metabolic Activation: HAMSTER, LIVER, S-9, AROCLOR 1254, Method: PREINCUBATION): inactive; negative
mutagenic call (Test System: AMES SALMONELLA TYPHIMURIUM, Strain/Indicator: TA1537, Metabolic Activation: NONE, Method: PREINCUBATION): inactive; negative
mutagenic call (Test System: AMES SALMONELLA TYPHIMURIUM, Strain/Indicator: TA1537, Metabolic Activation: RAT, LIVER, S-9, AROCLOR 1254, Method: PREINCUBATION): inactive; negative
mutagenic call (Test System: E. COLI, Strain/Indicator: WP2 UVRA, Metabolic Activation: NONE, Method: SPOT TEST): inactive; negative

Cc1cc2c3c(cccc3c1)-c1cc3ccccc3cc1-2
mutagenic call (Test System: AMES SALMONELLA TYPHIMURIUM, Strain/Indicator: TA100, Metabolic Activation: RAT, LIVER, S-9, AROCLOR 1254): active; positive
